# Data from ChEMBL document CHEMBL1201862, “PubChem BioAssay data set” (2004).
#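 Cells were grown in 96-well plates and exposed to each compound for 48 hours at five concentrations; endpoints were interpolated linearly between bracketing concentrations, or set to the highest concentration if not reached. GI50 marks 50% less growth.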 The source made the active and inactive calls. Cut-off read from the data, not from the text of the source: active = GI50 up to about 1.1 µM and inactive = higher.
# What was measured:
# Assay in all cases: NCI tumour cell line growth inhibition, 48 h
# SK-OV-3 = tested on: SK-OV-3
# U-251 = tested on: U-251
# MOLT-4 = tested on: MOLT-4
# SK-MEL-28 = tested on: SK-MEL-28
# M14 = tested on: M14
# 786-0 = tested on: 786-0
# UACC-62 = tested on: UACC-62
# SN12C = tested on: SN12C
# RXF 393 = tested on: RXF 393
# CAKI-1 = tested on: CAKI-1
# SW-620 = tested on: SW-620
# HT-29 = tested on: HT-29
# SNB-19 = tested on: SNB-19
# IGROV-1 = tested on: IGROV-1
# HCT-116 = tested on: HCT-116
# LOX IMVI = tested on: LOX IMVI
SMILES,GI50 (SK-OV-3),GI50 (U-251),GI50 (MOLT-4),GI50 (SK-MEL-28),GI50 (M14),GI50 (786-0),GI50 (UACC-62),GI50 (SN12C),GI50 (RXF 393),GI50 (CAKI-1),GI50 (SW-620),GI50 (HT-29),GI50 (SNB-19),GI50 (IGROV-1),GI50 (HCT-116),GI50 (LOX IMVI)
COc1cccc(/C=C(\NC(C)=O)c2nc3cc(Cl)ccc3[nH]2)c1,> 100 µM (inactive),> 100 µM (inactive),> 100 µM (inactive),> 100 µM (inactive),> 100 µM (inactive),> 100 µM (inactive),> 100 µM (inactive),> 100 µM (inactive),> 100 µM (inactive),> 100 µM (inactive),> 100 µM (inactive),> 100 µM (inactive),> 100 µM (inactive),> 100 µM (inactive),,
Cc1ccc(-c2cc(-c3ccco3)c(C#N)c(=O)n2C2OC(OC(=O)c3ccccc3)C(OC(=O)c3ccccc3)C2OC(=O)c2ccccc2)cc1 (stereo not given),> 100 µM (inactive),0.925 µM (active),> 100 µM (inactive),> 100 µM (inactive),64.4 µM (inactive),81.3 µM (inactive),> 100 µM (inactive),> 100 µM (inactive),24.9 µM (inactive),> 100 µM (inactive),> 100 µM (inactive),> 100 µM (inactive),,42.8 µM (inactive),32.1 µM (inactive),> 100 µM (inactive)
COc1ccc([Se]c2ccc(OC)cc2OC)c(OC)c1,34.3 µM (inactive),21.6 µM (inactive),5.36 µM (inactive),15.8 µM (inactive),18.4 µM (inactive),40.5 µM (inactive),11.1 µM (inactive),36.4 µM (inactive),18.2 µM (inactive),19.5 µM (inactive),4.66 µM (inactive),4.58 µM (inactive),86.7 µM (inactive),5.37 µM (inactive),12.1 µM (inactive),24.6 µM (inactive)
O=C(Nc1cccc(Cc2cccc(NC(=O)c3ccccc3)c2)c1)c1ccccc1,25.8 µM (inactive),20.1 µM (inactive),> 100 µM (inactive),41.7 µM (inactive),55.1 µM (inactive),26.9 µM (inactive),23.8 µM (inactive),19.5 µM (inactive),14.8 µM (inactive),16.9 µM (inactive),> 100 µM (inactive),> 100 µM (inactive),25.4 µM (inactive),47.8 µM (inactive),50.6 µM (inactive),> 100 µM (inactive)
Cc1c(Cl)ccc2c1NC(=O)C2(O)CC(=O)c1cccc2ccccc12 (stereo not given),> 100 µM (inactive),44.7 µM (inactive),35.2 µM (inactive),> 100 µM (inactive),> 100 µM (inactive),73.6 µM (inactive),36.7 µM (inactive),> 100 µM (inactive),99.3 µM (inactive),39.4 µM (inactive),38.9 µM (inactive),43.4 µM (inactive),90.8 µM (inactive),> 100 µM (inactive),69.5 µM (inactive),96.6 µM (inactive)
O=C1CCC[C@]2(CCCC(=O)N2)C1,> 100 µM (inactive),> 100 µM (inactive),> 100 µM (inactive),> 100 µM (inactive),> 100 µM (inactive),> 100 µM (inactive),> 100 µM (inactive),> 100 µM (inactive),> 100 µM (inactive),> 100 µM (inactive),> 100 µM (inactive),> 100 µM (inactive),> 100 µM (inactive),> 100 µM (inactive),> 100 µM (inactive),> 100 µM (inactive)
O=C(OCN1C(=O)C2C3C=CC(C2C1=O)C1C2C(=O)N(COC(=O)C4CCCN4)C(=O)C2C31)C1CCCN1 (stereo not given),> 100 µM (inactive),> 45.8 µM (inactive),32.3 µM (inactive),> 83.9 µM (inactive),71.6 µM (inactive),35.6 µM (inactive),> 76.7 µM (inactive),> 72.3 µM (inactive),> 76.6 µM (inactive),> 86.9 µM (inactive),30.2 µM (inactive),67 µM (inactive),> 100 µM (inactive),> 91 µM (inactive),28.8 µM (inactive),35.9 µM (inactive)
CC(=O)O[C@]12CCCCC1C1(O)C(O)CCCCC12 (stereo not given in full),> 100 µM (inactive),> 100 µM (inactive),> 100 µM (inactive),> 100 µM (inactive),> 100 µM (inactive),> 100 µM (inactive),> 100 µM (inactive),> 100 µM (inactive),> 100 µM (inactive),,> 100 µM (inactive),> 100 µM (inactive),> 100 µM (inactive),,> 100 µM (inactive),> 100 µM (inactive)
CCc1cccc(C)c1NC(=O)CC(=O)NNC(N)=S,> 100 µM (inactive),> 100 µM (inactive),> 100 µM (inactive),> 100 µM (inactive),> 100 µM (inactive),> 100 µM (inactive),,> 100 µM (inactive),> 100 µM (inactive),> 100 µM (inactive),> 100 µM (inactive),> 100 µM (inactive),> 100 µM (inactive),,,> 100 µM (inactive)
CC(=O)O[C@]12CCCCCC1C1(O)C(O)CCC[C@H]12 (stereo not given in full),> 100 µM (inactive),> 100 µM (inactive),> 100 µM (inactive),> 100 µM (inactive),> 100 µM (inactive),> 100 µM (inactive),> 100 µM (inactive),> 100 µM (inactive),> 100 µM (inactive),,> 100 µM (inactive),> 100 µM (inactive),> 100 µM (inactive),,> 100 µM (inactive),> 100 µM (inactive)
O=C(O)CNc1cc(-c2ccccc2)nc(NCC(=O)O)n1,> 100 µM (inactive),> 100 µM (inactive),> 100 µM (inactive),49.5 µM (inactive),> 100 µM (inactive),> 100 µM (inactive),> 100 µM (inactive),> 100 µM (inactive),,> 100 µM (inactive),> 100 µM (inactive),> 100 µM (inactive),> 100 µM (inactive),> 100 µM (inactive),> 100 µM (inactive),> 100 µM (inactive)
O=C1NC(=O)C(C(=O)C(=O)Nc2ccc(Cl)cc2Cl)C(=O)N1,> 100 µM (inactive),> 100 µM (inactive),> 100 µM (inactive),,> 100 µM (inactive),> 100 µM (inactive),> 100 µM (inactive),,,> 100 µM (inactive),> 100 µM (inactive),,> 100 µM (inactive),> 100 µM (inactive),> 100 µM (inactive),
CCC1(N=[N+]=[N-])C(=O)c2ccccc2N(C)C1=O (stereo not given),> 100 µM (inactive),> 100 µM (inactive),> 100 µM (inactive),> 100 µM (inactive),> 100 µM (inactive),> 100 µM (inactive),> 100 µM (inactive),> 100 µM (inactive),,> 100 µM (inactive),> 100 µM (inactive),> 100 µM (inactive),> 100 µM (inactive),> 100 µM (inactive),> 100 µM (inactive),> 100 µM (inactive)
O=C1CCC(c2ccccc2)C(O)(C(=O)O)C1 (stereo not given),> 100 µM (inactive),> 100 µM (inactive),> 100 µM (inactive),> 100 µM (inactive),> 100 µM (inactive),> 100 µM (inactive),> 100 µM (inactive),> 100 µM (inactive),,> 100 µM (inactive),> 100 µM (inactive),> 100 µM (inactive),> 100 µM (inactive),> 100 µM (inactive),> 100 µM (inactive),> 100 µM (inactive)
CNCC(=O)Nc1ccc2c(c1)C(=O)c1ccc(NC(=O)CNC)cc1C2=O,1.62 µM (inactive),2.7 µM (inactive),2.52 µM (inactive),2.54 µM (inactive),2.55 µM (inactive),4.42 µM (inactive),10.3 µM (inactive),3.1 µM (inactive),7.31 µM (inactive),5.65 µM (inactive),2.56 µM (inactive),4.42 µM (inactive),,16.6 µM (inactive),1.81 µM (inactive),1.68 µM (inactive)
CC1(Br)C(=O)NC(=O)N(C2CC(N=[N+]=[N-])C(CO)O2)C1N=[N+]=[N-] (stereo not given),> 100 µM (inactive),> 100 µM (inactive),> 100 µM (inactive),> 100 µM (inactive),> 100 µM (inactive),> 100 µM (inactive),> 100 µM (inactive),> 100 µM (inactive),91.8 µM (inactive),70.8 µM (inactive),> 100 µM (inactive),> 100 µM (inactive),> 100 µM (inactive),> 100 µM (inactive),,> 100 µM (inactive)
CC1(C)C=N[N+]2(C)C3C=CC(CC3)C12 (stereo not given),> 100 µM (inactive),> 100 µM (inactive),> 100 µM (inactive),> 100 µM (inactive),> 100 µM (inactive),> 100 µM (inactive),> 100 µM (inactive),> 100 µM (inactive),> 100 µM (inactive),> 100 µM (inactive),,> 100 µM (inactive),> 100 µM (inactive),> 100 µM (inactive),> 100 µM (inactive),> 100 µM (inactive)
C=CC1=C(C)c2cc3[nH]c(cc4nc(cc5[nH]c(cc1n2)c(C)c5CCC(=O)N(CC)CC)C(CCC(=O)N(CC)CC)=C4C)c(C)c3C=C,> 100 µM (inactive),> 100 µM (inactive),> 100 µM (inactive),> 100 µM (inactive),> 100 µM (inactive),> 100 µM (inactive),> 100 µM (inactive),> 100 µM (inactive),75.9 µM (inactive),,> 100 µM (inactive),> 100 µM (inactive),,> 100 µM (inactive),> 100 µM (inactive),> 100 µM (inactive)
